# PubChem BioAssay AID1963843 (Molecular Pharmacology Branch, DTP, NCI, 2024)
# pIC50: −log10 of the molar value.
# Test system: 616215-338-R-J1-PDC complex spheroid viability
# Experiment: Anticancer human tumor 616215-338-R-J1-PDC patient-derived colon adenocarcinoma cell line growth inhibition [POLQ]
# Settings: for pIC50: curve of first compound; for viability, T/C: stronger effect = lower value
# How it was run: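 PDC + HUVEC + MSC complex spheroids; POLQ inhibitors ± partner drugs; top conc. at/near clinical Cmax, else 10 microM (SN-38 1 microM), half-log dilutions; 37 degrees C, 5% CO2.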
# [1] = second compound 0.0316 µM, first compound 0.0316 µM
# [2] = second compound 0.0316 µM, first compound 0.1 µM
# [3] = second compound 0.0316 µM, first compound 0.316 µM
# [4] = second compound 0.0316 µM, first compound 1 µM
# [5] = second compound 0.1 µM, first compound 0.0316 µM
# [6] = second compound 0.1 µM, first compound 0.1 µM
# [7] = second compound 0.1 µM, first compound 0.316 µM
# [8] = second compound 0.1 µM, first compound 1 µM
# [9] = second compound 0.316 µM, first compound 0.0316 µM
# [10] = second compound 0.316 µM, first compound 0.1 µM
# [11] = second compound 0.316 µM, first compound 0.316 µM
# [12] = second compound 0.316 µM, first compound 1 µM
# [13] = second compound 1 µM, first compound 0.0316 µM
# [14] = second compound 1 µM, first compound 0.1 µM
# [15] = second compound 1 µM, first compound 0.316 µM
# [16] = second compound 1 µM, first compound 1 µM
# [17] = second compound 3.16 µM, first compound 0.0316 µM
# [18] = second compound 3.16 µM, first compound 0.1 µM
# [19] = second compound 3.16 µM, first compound 0.316 µM
# [20] = second compound 3.16 µM, first compound 1 µM
# [21] = second compound 10 µM, first compound 0.0316 µM
# [22] = second compound 10 µM, first compound 0.1 µM
# [23] = second compound 10 µM, first compound 0.316 µM
# [24] = second compound 10 µM, first compound 1 µM
# [25] = second compound 0.0316 µM, first compound 3.16 µM
# [26] = second compound 0.0316 µM, first compound 10 µM
# [27] = second compound 0.1 µM, first compound 3.16 µM
# [28] = second compound 0.1 µM, first compound 10 µM
# [29] = second compound 0.316 µM, first compound 3.16 µM
# [30] = second compound 0.316 µM, first compound 10 µM
# [31] = second compound 1 µM, first compound 3.16 µM
# [32] = second compound 1 µM, first compound 10 µM
# [33] = second compound 3.16 µM, first compound 3.16 µM
# [34] = second compound 3.16 µM, first compound 10 µM
# [35] = second compound 10 µM, first compound 3.16 µM
# [36] = second compound 10 µM, first compound 10 µM
# 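Note: spheroids exposed to compounds for one week before readout.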
# 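Throughout, for viability, T/C: percent viability relative to DMSO vehicle wells taken as 100%.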
smiles,measurement,setting,value
CCc1c2c(nc3ccc(O)cc13)-c1cc3c(c(=O)n1C2)COC(=O)[C@]3(O)CC + COC1C(OC(N)=O)C(O)C(Oc2ccc3c(O)c(NC(=O)c4ccc(O)c(CC=C(C)C)c4)c(=O)oc3c2C)OC1(C)C,pIC50,second compound 0.0316 µM,7.03
same,pIC50,second compound 0.1 µM,7.06
same,pIC50,second compound 0.316 µM,7.03
same,pIC50,second compound 1 µM,7.14
same,pIC50,second compound 3.16 µM,7.31
same,pIC50,second compound 10 µM,7.51
same,"viability, T/C","second compound 0.0316 µM, first compound 0.00316 µM",110%
same,"viability, T/C","second compound 0.0316 µM, first compound 0.01 µM",87.6%
same,"viability, T/C",[1],70.6%
same,"viability, T/C",[2],49.2%
same,"viability, T/C",[3],30.4%
same,"viability, T/C",[4],20.2%
same,"viability, T/C","second compound 0.1 µM, first compound 0.00316 µM",103%
same,"viability, T/C","second compound 0.1 µM, first compound 0.01 µM",95.4%
same,"viability, T/C",[5],73.5%
same,"viability, T/C",[6],45.8%
same,"viability, T/C",[7],30.1%
same,"viability, T/C",[8],19.2%
same,"viability, T/C","second compound 0.316 µM, first compound 0.00316 µM",107%
same,"viability, T/C","second compound 0.316 µM, first compound 0.01 µM",95.7%
same,"viability, T/C",[9],67.8%
same,"viability, T/C",[10],50%
same,"viability, T/C",[11],30.8%
same,"viability, T/C",[12],18.5%
same,"viability, T/C","second compound 1 µM, first compound 0.00316 µM",103%
same,"viability, T/C","second compound 1 µM, first compound 0.01 µM",81.3%
same,"viability, T/C",[13],60.7%
same,"viability, T/C",[14],47.9%
same,"viability, T/C",[15],28.9%
same,"viability, T/C",[16],19.6%
same,"viability, T/C","second compound 3.16 µM, first compound 0.00316 µM",106%
same,"viability, T/C","second compound 3.16 µM, first compound 0.01 µM",87.2%
same,"viability, T/C",[17],59.7%
same,"viability, T/C",[18],35.1%
same,"viability, T/C",[19],24.1%
same,"viability, T/C",[20],20.6%
same,"viability, T/C","second compound 10 µM, first compound 0.00316 µM",86.7%
same,"viability, T/C","second compound 10 µM, first compound 0.01 µM",65.5%
same,"viability, T/C",[21],53.7%
same,"viability, T/C",[22],32.5%
same,"viability, T/C",[23],21.7%
same,"viability, T/C",[24],21.1%
Nc1ccn(C2OC(CO)C(O)C2(F)F)c(=O)n1 (stereo not drawn) + COC1C(OC(N)=O)C(O)C(Oc2ccc3c(O)c(NC(=O)c4ccc(O)c(CC=C(C)C)c4)c(=O)oc3c2C)OC1(C)C,pIC50,second compound 0.0316 µM,> 7.50
same,pIC50,second compound 0.1 µM,7.18
same,pIC50,second compound 0.316 µM,7.18
same,pIC50,second compound 1 µM,7.21
same,pIC50,second compound 3.16 µM,7.24
same,pIC50,second compound 10 µM,7.22
same,"viability, T/C",[1],49.3%
same,"viability, T/C",[2],32.9%
same,"viability, T/C",[3],24%
same,"viability, T/C",[4],35%
same,"viability, T/C",[25],34%
same,"viability, T/C",[26],30%
same,"viability, T/C",[5],62.5%
same,"viability, T/C",[6],42.8%
same,"viability, T/C",[7],28.5%
same,"viability, T/C",[8],29.1%
same,"viability, T/C",[27],30.1%
same,"viability, T/C",[28],35.3%
same,"viability, T/C",[9],56.9%
same,"viability, T/C",[10],46%
same,"viability, T/C",[11],26.4%
same,"viability, T/C",[12],27.7%
same,"viability, T/C",[29],32.1%
same,"viability, T/C",[30],32.9%
same,"viability, T/C",[13],60.1%
same,"viability, T/C",[14],42.7%
same,"viability, T/C",[15],24.4%
same,"viability, T/C",[16],23.2%
same,"viability, T/C",[31],32.6%
same,"viability, T/C",[32],29.3%
same,"viability, T/C",[17],64.8%
same,"viability, T/C",[18],39.5%
same,"viability, T/C",[19],23.1%
same,"viability, T/C",[20],27.8%
same,"viability, T/C",[33],30.6%
same,"viability, T/C",[34],30%
same,"viability, T/C",[21],69.3%
same,"viability, T/C",[22],34.6%
same,"viability, T/C",[23],28.5%
same,"viability, T/C",[24],28.1%
same,"viability, T/C",[35],28.4%
same,"viability, T/C",[36],36.5%
O=C(c1cc(Cc2n[nH]c(=O)c3ccccc23)ccc1F)N1CCN(C(=O)C2CC2)CC1 + COC1C(OC(N)=O)C(O)C(Oc2ccc3c(O)c(NC(=O)c4ccc(O)c(CC=C(C)C)c4)c(=O)oc3c2C)OC1(C)C,pIC50,second compound 0.0316 µM,< 5.00
same,pIC50,second compound 0.1 µM,< 5.00
same,pIC50,second compound 0.316 µM,< 5.00
same,pIC50,second compound 1 µM,< 5.00
same,pIC50,second compound 3.16 µM,< 5.00
same,pIC50,second compound 10 µM,< 5.00
same,"viability, T/C",[1],103%
same,"viability, T/C",[2],99.2%
same,"viability, T/C",[3],107%
same,"viability, T/C",[4],105%
same,"viability, T/C",[25],109%
same,"viability, T/C",[26],87.8%
same,"viability, T/C",[5],102%
same,"viability, T/C",[6],89%
same,"viability, T/C",[7],98.5%
same,"viability, T/C",[8],99.8%
same,"viability, T/C",[27],110%
same,"viability, T/C",[28],85.7%
same,"viability, T/C",[9],102%
same,"viability, T/C",[10],113%
same,"viability, T/C",[11],103%
same,"viability, T/C",[12],101%
same,"viability, T/C",[29],109%
same,"viability, T/C",[30],98.2%
same,"viability, T/C",[13],107%
same,"viability, T/C",[14],108%
same,"viability, T/C",[15],102%
same,"viability, T/C",[16],101%
same,"viability, T/C",[31],97%
same,"viability, T/C",[32],93.4%
same,"viability, T/C",[17],99.6%
same,"viability, T/C",[18],95%
same,"viability, T/C",[19],96.7%
same,"viability, T/C",[20],94.7%
same,"viability, T/C",[33],109%
same,"viability, T/C",[34],88.2%
same,"viability, T/C",[21],104%
same,"viability, T/C",[22],94%
same,"viability, T/C",[23],106%
same,"viability, T/C",[24],105%
same,"viability, T/C",[35],95.1%
same,"viability, T/C",[36],84.5%
O=c1[nH]cc(F)c(=O)[nH]1 + COC1C(OC(N)=O)C(O)C(Oc2ccc3c(O)c(NC(=O)c4ccc(O)c(CC=C(C)C)c4)c(=O)oc3c2C)OC1(C)C,pIC50,second compound 0.0316 µM,< 5.00
same,pIC50,second compound 0.1 µM,< 5.00
same,pIC50,second compound 0.316 µM,< 5.00
same,pIC50,second compound 1 µM,< 5.00
same,pIC50,second compound 3.16 µM,< 5.00
same,pIC50,second compound 10 µM,< 5.00
same,"viability, T/C",[1],101%
same,"viability, T/C",[2],94.6%
same,"viability, T/C",[3],73.4%
same,"viability, T/C",[4],61.1%
same,"viability, T/C",[25],60.7%
same,"viability, T/C",[26],68.7%
same,"viability, T/C",[5],99.4%
same,"viability, T/C",[6],96.3%
same,"viability, T/C",[7],75.3%
same,"viability, T/C",[8],64.2%
same,"viability, T/C",[27],61%
same,"viability, T/C",[28],61.9%
same,"viability, T/C",[9],100%
same,"viability, T/C",[10],97.2%
same,"viability, T/C",[11],67.3%
same,"viability, T/C",[12],59.3%
same,"viability, T/C",[29],60%
same,"viability, T/C",[30],63%
same,"viability, T/C",[13],95.8%
same,"viability, T/C",[14],94.1%
same,"viability, T/C",[15],75.2%
same,"viability, T/C",[16],58.1%
same,"viability, T/C",[31],52.1%
same,"viability, T/C",[32],59%
same,"viability, T/C",[17],99.2%
same,"viability, T/C",[18],107%
same,"viability, T/C",[19],75.7%
same,"viability, T/C",[20],69.8%
same,"viability, T/C",[33],65.4%
same,"viability, T/C",[34],65.8%
same,"viability, T/C",[21],111%
same,"viability, T/C",[22],99.2%
same,"viability, T/C",[23],68.5%
same,"viability, T/C",[24],57.9%
same,"viability, T/C",[35],54.2%
same,"viability, T/C",[36],61.2%
